Experimental data reported in ChEMBL document CHEMBL1124916, “Neural networks applied to quantitative structure-activity relationship analysis” (1990).
“And” between values parts separate entries of the source, which are not always exact repeats. Identical values can stand only once.

Tests used:
Type in all cases: functional
[1] = Compound was evaluated for the Anti-fighting behavior.; parameters: scale not given here
[2] = Evaluation for the Anti-pentylenetetrazole effect.; parameters: unit not given here
[3] = species: Mus musculus; experiment: Minimum Effective Dose (MED) which cause 40% increase in life span, after singular injection at log (1/C).
[4] = species: Mus musculus; experiment: Optimal Dose (OD) which cause maximum increase in the life span, after singular injection at log (1/C).
[5] = species: Mus musculus; experiment: Minimum Effective Dose (MED) which cause 40% increase in life span, after chronic injection at log (1/C).
[6] = species: Mus musculus; experiment: Optimal Dose (OD) which cause maximum increase in the life span, after chronic injection at log (1/C).

Row | Compound | Anti-fighting behaviour [1] | Anti-pent effect [2] | also measured
1 | CN(C)C(=O)CN1C(=O)CN=C(c2ccccc2)c2cc(Cl)ccc21 | 4.25 | 5.35 | –
2 | CN(C)CCCN1C(=O)CN=C(c2ccccc2)c2cc(Cl)ccc21 | – | 3.38 | –
3 | O=C1CN=C(c2ccccc2F)c2cc([N+](=O)[O-])ccc2N1 | 5.17 | 6 | –
4 | CN(C)CCN1C(=O)CN=C(c2ccccc2)c2cc(Cl)ccc21 | 3.53 | 4.73 | –
5 | CC1=C(N2CC2)C(=O)C(CCOC(=O)N(C)C)=C(N2CC2)C1=O | – | – | MED [3]: 5.09; OD [4]: 4.84
6 | CC(C)C1=C(N2CC2)C(=O)C=C(N2CC2)C1=O | – | – | MED [5]: 5.68; MED [3]: 5.16; OD [6]: 5.37; OD [4]: 4.59
7 | O=C1CN=C(c2ccccc2)c2cc(Cl)ccc2N1CC1CC1 | 4.51 | 4.9 | –
8 | CCC1=C(N2CC2)C(=O)C(CCOC(N)=O)=C(N2CC2)C1=O | – | – | MED [5]: 6.25; MED [3]: 5.98; OD [6]: 5.48; OD [4]: 4.88
9 | CCCC1=C(N2CC2)C(=O)C(CCOC(N)=O)=C(N2CC2)C1=O | – | – | MED [5]: 5.68; MED [3]: 4.9; OD [6]: 5.23; OD [4]: 4.42
10 | CCN(CC)CCN1C(=O)CN=C(c2ccccc2F)c2cc(Cl)ccc21 | 4.29 | 5.38 | –
11 | CCN1C(=O)CN=C(c2ccccc2)c2cc(Cl)ccc21 | 4.17 | 4.9 | –
12 | CN1C(=O)CN=C(c2ccccc2F)c2ccccc21 | 3.83 | 4.53 | –
13 | CN1C(=O)CN=C(c2ccccc2)c2cc(Cl)ccc21 | 4.45 | 5.31 | –
14 | CN(C)c1ccc2c(c1)C(c1ccccc1)=NCC(=O)N2 | – | 3.84 | –
15 | CSc1ccc2c(c1)C(c1ccccc1)=NCC(=O)N2 | 4.15 | 4.15 | –
16 | CN1C(=O)CN=C(c2ccccc2C(F)(F)F)c2cc([N+](=O)[O-])ccc21 | 4.86 | 5.71 | –
17 | O=C1CN=C(c2ccccc2)c2ccccc2N1 | 3.37 | – | –
18 | O=C1CN=C(c2ccccc2Br)c2cc(Cl)ccc2N1 | 4.85 | 5.77 | –
19 | NN1C(=O)CN=C(c2ccccc2)c2cc([N+](=O)[O-])ccc21 | 5.17 | 5.77 | –
20 | CCCCSc1ccc2c(c1)C(c1ccccc1)=NCC(=O)N2 | – | 3.79 | –
21 | N#Cc1ccc2c(c1)C(c1ccccc1)=NCC(=O)N2 | 3.81 | 5.3 | –
22 | CNC(=O)CN1C(=O)CN=C(c2ccccc2)c2cc(Cl)ccc21 | 3.63 | 5.83 | –
23 | O=C1C(c2ccccc2)=C(N2CC2)C(=O)C(c2ccccc2)=C1N1CC1 | – | – | MED [5]: 4.33; OD [6]: 4.14; OD [4]: 3.53

Row | Compound | Anti-fighting behaviour [1] | Anti-pent effect [2] | also measured
24 | O=C1CN=C(c2ccccc2[N+](=O)[O-])c2cc([N+](=O)[O-])ccc2N1 | 3.91 | 5.97 | –
25 | CN1C(=O)CN=C(c2ccccc2Cl)c2cc([N+](=O)[O-])ccc21 | 5.12 | 6.92 | –
26 | C[S+]([O-])c1ccc2c(c1)C(c1ccccc1)=NCC(=O)N2 (stereo not drawn) | – | 4.08 | –
27 | Cc1ccccc1C1=NCC(=O)Nc2ccc(Cl)cc21 | 3.45 | 4.57 | –
28 | O=C1CN=C(c2ccccc2)c2cc(Cl)ccc2N1Cc1ccccc1 | 3.56 | 4.64 | –
29 | CN(C)c1ccc2c(c1)C(c1ccccc1)=NCC(=O)N2C | 3.86 | 4.69 | –
30 | O=C1CN=C(c2ccccc2Cl)c2cc([N+](=O)[O-])ccc2N1 | 4.2 | 6.3 | –
31 | CN1C(=O)CN=C(c2ccccc2)c2cc([N+](=O)[O-])ccc21 | 5.07 | 5.62 | –
32 | CC1=C(N2CC2)C(=O)C(CCCC2=C(N3CC3)C(=O)C(C)=C(N3CC3)C2=O)=C(N2CC2)C1=O | – | – | MED [5]: 5.82; OD [6]: 5.39
33 | CN1C(=O)CN=C(c2ccccc2F)c2cc(F)ccc21 | – | 3.33 | –
34 | O=C1CN=C(c2ccccc2)c2cc(C(F)(F)F)ccc2N1 | 4.48 | 5.48 | –
35 | CN(C)CCN1C(=O)CN=C(c2ccccc2)c2cc([N+](=O)[O-])ccc21 | 4.25 | 4.7 | –
36 | CN(C)CCCN1C(=O)CN=C(c2ccccc2F)c2cc(Cl)ccc21 | 3.97 | 4.76 | –
37 | CNC(=O)CN1C(=O)CN=C(c2ccccc2)c2cc([N+](=O)[O-])ccc21 | 4.55 | 5.29 | –
38 | C=CCN1C(=O)CN=C(c2ccccc2)c2cc(C(F)(F)F)ccc21 | 4.54 | 5.03 | –
39 | O=C1CN=C(c2ccccc2C(F)(F)F)c2cc(C(F)(F)F)ccc2N1 | 4.27 | 4.97 | –
40 | CN1C(=O)CN=C(c2ccccc2F)c2cc([N+](=O)[O-])ccc21 | 5.8 | 6.5 | –
41 | COc1ccccc1C1=NCC(=O)Nc2ccc(Cl)cc21 | 3.48 | 4.6 | –
42 | CCSc1ccc2c(c1)C(c1ccccc1)=NCC(=O)N2 | – | 3.57 | –
43 | CC(=O)C1=C(N2CC2)C(=O)C(C)=C(N2CC2)C1=O | – | – | MED [3]: 3.94; OD [4]: 3.48
44 | CN1C(=O)CN=C(c2ccccc2F)c2cc(Cl)ccc21 | 4.78 | 5.88 | –
45 | CN1C(=O)CN=C(c2ccccc2Cl)c2cc(Cl)ccc21 | 4.5 | 6.03 | –
46 | C=CCN1C(=O)CN=C(c2ccccc2)c2cc(Cl)ccc21 | 4.49 | 5.35 | –

Row | Compound | Anti-fighting behaviour [1] | Anti-pent effect [2] | also measured
47 | O=C1CN=C(c2ccccc2)c2cc(Cl)ccc2N1CCCO | 3.61 | 4.34 | –
48 | CN(C)CCCN1C(=O)CN=C(c2ccccc2)c2cc([N+](=O)[O-])ccc21 | 3.61 and 3.96 | 5.82 and 4.28 | –
49 | CNC(=O)CN1C(=O)CN=C(c2ccccc2)c2cc(C(F)(F)F)ccc21 | 3.69 | 5.06 | –
50 | CSc1ccc2c(c1)C(c1ccccc1)=NCC(=O)N2C | 3.87 | 3.6 | –
51 | O=C1CN=C(c2ccccc2)c2cc(Br)ccc2N1 | 4.2 | 5.2 | –
52 | O=C1CN=C(c2ccccc2)c2cc(F)ccc2N1 | 3.4 | – | –
53 | O=C1CN=C(c2ccccc2C(F)(F)F)c2cc([N+](=O)[O-])ccc2N1 | 4.54 | 5.7 | –
54 | O=C1CN=C(c2ccccc2Cl)c2cc(Cl)ccc2N1 | 5.18 | 5.85 | –
55 | CN1C(=O)CN=C(c2ccccc2)c2cc(C#N)ccc21 | 4.74 | 5.44 | –
56 | CC(=O)OCCC1=C(N2CC2)C(=O)C(C)=C(N2CC2)C1=O | – | – | MED [5]: 5.78; OD [6]: 5.78
57 | O=C1CN=C(c2ccccc2)c2cc(Cl)ccc2N1 | – | 4.65 | –
58 | CCC(C)CN1C(=O)CN=C(c2ccccc2)c2cc([N+](=O)[O-])ccc21 (stereo not drawn) | 3.77 | 4.8 | –
59 | CC(=O)CN1C(=O)CN=C(c2ccccc2)c2cc(Cl)ccc21 | 4.21 | 5.28 | –
60 | CN(C)CCN1C(=O)CN=C(c2ccccc2)c2cc(C(F)(F)F)ccc21 | 4.27 | 4.76 | –
61 | O=C1CN=C(c2ccccc2)c2cc([N+](=O)[O-])ccc2N1 | 4.75 | 5.6 | –
62 | O=C1CN=C(c2ccccc2F)c2cc(Cl)ccc2N1 | 4.76 | 6.46 | –
63 | CCN(CC)CCN1C(=O)CN=C(c2ccccc2)c2cc(Cl)ccc21 | 3.57 | 5.06 | –
64 | NC(=O)CN1C(=O)CN=C(c2ccccc2)c2cc(Cl)ccc21 | 4.21 | 5.07 | –
65 | N#Cc1ccc2c(c1)C(c1ccccc1F)=NCC(=O)N2 | 4.75 | 5.63 | –
66 | CCC(C)CN1C(=O)CN=C(c2ccccc2)c2cc(Cl)ccc21 (stereo not drawn) | 3.53 | 4.99 | –
67 | CN(C)C(=O)OCCC1=C(N2CC2)C(=O)C(CCOC(=O)N(C)C)=C(N2CC2)C1=O | – | – | MED [5]: 5.16; OD [6]: 4.85; OD [4]: 4.62
